Data: ChEMBL document CHEMBL2057125, “Structural simplification of bioactive natural products with multicomponent synthesis. 4. 4H-pyrano-[2,3-b]naphthoquinones with anticancer activity” (2012)

Tests used:
[1] = Antiproliferative activity against human MCF7/AZ cells assessed as reduction in cell viability after 48 hrs by MTT assay; format: functional
HeLa = test: Antiproliferative activity against human HeLa cells assessed as reduction in cell viability after 48 hrs by MTT assay; format: functional
Jurkat [2] = test: Induction of apoptosis in human Jurkat cells assessed as apoptotic cells at 50 uM after 24 hrs using annexin-V/Propidium iodide by flow cytometry; format: functional
Jurkat [3] = test: Antiproliferative activity against human Jurkat cells assessed as reduction in cell viability after 48 hrs by MTT assay; format: functional
[4] = Antiproliferative activity against human OE21 cells assessed as reduction in cell viability after 72 hrs by MTT assay; format: functional; conditions: OE21, 72 h
[5] = Antiproliferative activity against human U373 cells assessed as reduction in cell viability after 72 hrs by MTT assay; format: functional, U-373MG ATCC; conditions: U373 MG
LoVo = test: Antiproliferative activity against human LoVo cells assessed as reduction in cell viability after 72 hrs by MTT assay; format: functional
SK-MEL-28 = test: Antiproliferative activity against human SK-MEL-28 cells assessed as reduction in cell viability after 72 hrs by MTT assay; format: functional; conditions: SK-MEL-28, 72 h
[6] = Antiproliferative activity against human Hs683 cells assessed as reduction in cell viability after 72 hrs by MTT assay; format: functional; conditions: Hs 683, 72 h
A549 = test: Antiproliferative activity against human A549 cells assessed as reduction in cell viability after 72 hrs by MTT assay; format: functional; conditions: A549, 72 h
PC-3 = test: Antiproliferative activity against human PC3 cells assessed as reduction in cell viability after 72 hrs by MTT assay; format: functional; conditions: PC-3, 72 h

Row | SMILES | GI50 [1] [µM] | GI50 (HeLa) [µM] | Activity (Jurkat [2]) [%] | GI50 (Jurkat [3]) [µM] | GI50 [4] [µM] | GI50 [5] [µM] | GI50 (LoVo) [µM] | GI50 (SK-MEL-28) [µM] | GI50 [6] [µM] | GI50 (A549) [µM] | GI50 (PC-3) [µM]
1 | N#CC1=C(N)OC2=C(C(=O)c3ccccc3C2=O)C1c1cccnc1 (stereo not drawn) | 3.4 | 14.2 | 20.8 | 20.4 | – | – | – | – | – | – | –
2 | N#CC1=C(N)OC2=C(C(=O)c3ccccc3C2=O)C1c1cccc(Oc2ccccc2)c1 (stereo not drawn) | 2.2 | 4 | 50 | 17.9 | 2.2 | 3.4 | 3.4 | 4.5 | 5 | 5 | 6.2
3 | N#CC1=C(N)OC2=C(C(=O)c3ccccc3C2=O)C1c1cccc(Br)c1 (stereo not drawn) | 28.6 | 16.1 | 48.4 | 20 | – | – | – | – | – | – | –
4 | N#CC1=C(N)OC2=C(C(=O)c3ccccc3C2=O)C1c1ccc(C(F)(F)F)cc1 (stereo not drawn) | 5.6 | 11.8 | 15.5 | 80.5 | – | – | – | – | – | – | –
5 | N#CC1=C(N)OC2=C(C(=O)c3ccccc3C2=O)C1c1ccccc1Cl (stereo not drawn) | 19 | 20.5 | 6.3 | 185 | – | – | – | – | – | – | –
6 | N#CC1=C(N)OC2=C(C(=O)c3ccccc3C2=O)C1c1ccc(O)cc1 (stereo not drawn) | 8.6 | 30.6 | 16.7 | 85 | – | – | – | – | – | – | –
7 | N#CC1=C(N)OC2=C(C(=O)c3ccccc3C2=O)C1c1cccc(Cl)c1 (stereo not drawn) | 59.8 | 77.5 | 22 | 108 | – | – | – | – | – | – | –
8 | N#CC1=C(N)OC2=C(C(=O)c3ccccc3C2=O)C1c1ccc(C(=O)O)cc1 (stereo not drawn) | 94.4 | 119 | 4.1 | 332 | – | – | – | – | – | – | –
9 | N#CC1=C(N)OC2=C(C(=O)c3ccccc3C2=O)C1c1ccc(OC(F)(F)F)cc1 (stereo not drawn) | 7.1 | 4.3 | 13.5 | 105 | – | – | – | – | – | – | –
10 | N#CC1=C(N)OC2=C(C(=O)c3ccccc3C2=O)C1c1ccc(Br)cc1 (stereo not drawn) | 22.8 | 30 | 40.1 | 38.3 | – | – | – | – | – | – | –
11 | N#CC1=C(N)OC2=C(C(=O)c3ccccc3C2=O)C1c1c(Cl)cccc1Cl (stereo not drawn) | 3.1 | 5.3 | 5.1 | 172 | 17.4 | 12.8 | 4.3 | 17.1 | 19.3 | 40.6 | 6.2
12 | N#CC1=C(N)OC2=C(C(=O)c3ccccc3C2=O)C1c1ccncc1 (stereo not drawn) | 6 | 14.5 | 28.6 | 23.9 | – | – | – | – | – | – | –
13 | N#CC1=C(N)OC2=C(C(=O)c3ccccc3C2=O)C1c1ccc(-c2ccccc2)cc1 (stereo not drawn) | 26 | 23.6 | 11.2 | 122 | – | – | – | – | – | – | –
14 | CC(C)c1ccc(C2C(C#N)=C(N)OC3=C2C(=O)c2ccccc2C3=O)cc1 (stereo not drawn) | 34 | 62.5 | 2.9 | 80.6 | – | – | – | – | – | – | –
15 | CC1(C)CCC2=C(O1)C(=O)c1ccccc1C2=O [ALPHA-LAPACHONE] | 16.7 | 25 | 7.4 | 75 | 22.7 | 23.1 | 24.4 | 4.7 | 9 | 16.3 | 13
16 | N#CC1=C(N)OC2=C(C(=O)c3ccccc3C2=O)C1c1cccs1 (stereo not drawn) | 36.9 | 94 | 11.2 | 82.4 | – | – | – | – | – | – | –
17 | N#CC1=C(N)OC2=C(C(=O)c3ccccc3C2=O)C1c1cccc([N+](=O)[O-])c1 (stereo not drawn) | 10.8 | 9.1 | 33.6 | 19.1 | – | – | – | – | – | – | –
18 | CC1(C)CCC2=C(O1)c1ccccc1C(=O)C2=O [LAPACHONE] | 6 | 4.6 | 51 | 6.1 | 0.6 | 0.4 | 0.3 | 0.6 | 0.4 | 0.8 | 0.01
19 | N#CC1=C(N)OC2=C(C(=O)c3ccccc3C2=O)C1c1ccc([N+](=O)[O-])cc1 (stereo not drawn) | 9.8 | 16.8 | 23.1 | 24.3 | – | – | – | – | – | – | –
20 | N#CC1=C(N)OC2=C(C(=O)c3ccccc3C2=O)C1c1ccc(Cl)cc1 (stereo not drawn) | 24 | 31.7 | 23.8 | 105 | – | – | – | – | – | – | –
21 | N#CC1=C(N)OC2=C(C(=O)c3ccccc3C2=O)C1c1ccccc1Br (stereo not drawn) | 26.3 | 31.6 | 41.7 | 30.7 | – | – | – | – | – | – | –
22 | N#CC1=C(N)OC2=C(C(=O)c3ccccc3C2=O)C1c1ccccc1 (stereo not drawn) | 18.5 | 23.5 | 16.7 | 43.3 | – | – | – | – | – | – | –
23 | N#CC1=C(N)OC2=C(C(=O)c3ccccc3C2=O)C1c1ccccc1[N+](=O)[O-] (stereo not drawn) | 8.3 | 11.2 | 25 | 16.8 | – | – | – | – | – | – | –
24 | Cc1ccc(C2C(C#N)=C(N)OC3=C2C(=O)c2ccccc2C3=O)o1 (stereo not drawn) | 51.6 | 54.3 | 57.8 | 47.8 | – | – | – | – | – | – | –
25 | N#CC1=C(N)OC2=C(C(=O)c3ccccc3C2=O)C1c1c(F)cccc1Cl (stereo not drawn) | 8 | 34.4 | 21.3 | 52.3 | – | – | – | – | – | – | –
